Assay results reported in patent US7462625B2, “Gonadotropin-releasing hormone receptor antagonists and methods relating thereto” (Neurocrine Biosciences, Inc., priority 2000, dated 2008).

The compounds below were run against T1, GnRH receptor (Homo sapiens, UniProt P30968) (assay: GnRH receptor membrane binding assay). Settings: not given.
T1 construct: expressed in transfected cells
T1 sequence (P30968 1-328): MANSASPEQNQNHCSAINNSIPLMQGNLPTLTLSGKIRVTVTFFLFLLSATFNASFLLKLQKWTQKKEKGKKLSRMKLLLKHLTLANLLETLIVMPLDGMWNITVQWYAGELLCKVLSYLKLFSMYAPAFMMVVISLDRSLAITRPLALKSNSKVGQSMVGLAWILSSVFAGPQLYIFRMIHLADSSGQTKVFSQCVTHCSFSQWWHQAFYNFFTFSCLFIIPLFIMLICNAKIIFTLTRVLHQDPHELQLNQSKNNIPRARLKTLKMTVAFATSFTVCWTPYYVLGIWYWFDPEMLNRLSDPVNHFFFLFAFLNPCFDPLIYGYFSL
Procedure: Radio-Iodination of GnRH Peptide
The GnRH analog is labeled by the chloramine-T method. […] The reaction is stopped by the addition of 60 μg sodium metabisulfite and the free iodine is removed by passing the iodinated mixture through a C-8 Sep-Pak cartridge (Millipore Corp., Milford, Mass.). The peptide is eluted with a small volume of 80% acetonitrile/water. […] The purified radioactive peptide is stored in 0.1% BSA/20% acetonitrile/0.1% TFA at −80° C. and can be used for up to 4 weeks.
GnRH Receptor Membrane Binding Assay
Cells stably, or transiently, transfected with GnRH receptor expression vectors are harvested, resuspended in 5% sucrose and homogenized using a polytron homogenizer (2×15 sec). Nucleii are removed by centrifugation (3000×g for 5 min.), and the supernatant centrifuged (20,000×g for 30 min, 4° C.) to collect the membrane fraction. The final membrane preparation is resuspended in binding buffer (10 mM Hepes (pH 7.5), 150 mM NaCl, and 0.1% BSA) and stored at −70° C. Binding reactions are performed in a Millipore MultiScreen 96-well filtration plate assembly with polyethylenimine coated GF/C membranes. […] The reaction is terminated after 90 minutes by application of vacuum and washing (2×) with phosphate buffered saline. Bound radioactivity is measured using 96-well scintillation counting (Packard Topcount) or by removing the filters from the plate and direct gamma counting. Ki values are calculated from competition binding data using non-linear least squares regression using the Prism software package (GraphPad Software).

Row | Ki [nM] | SMILES
1 | < 100 | Cc1cccc(-c2c(C)n(Cc3c(F)cccc3F)c(=O)n(C[C@H](N)c3ccccc3)c2=O)c1F [8-17]

Same assay, conditions: GnRH receptor membrane binding assay, [125I]-labeled GnRH peptide; read-out: Ki

Row | SMILES | Ki [nM]
2 | CCN(CC)CCN(C)CCn1c(=O)c(-c2ccc(C(C)C)cc2)c(C)n(Cc2c(F)cccc2F)c1=O [9-263] | < 100
3 | Cc1c(/C=C/c2ccccc2)c(=O)n(CCN(C)CCc2ccccn2)c(=O)n1Cc1c(F)cccc1F [9-287] | < 100
4 | COc1cccc(-c2c(C)n(Cc3c(F)cccc3F)c(=O)n(CCN3CC4CC3CO4)c2=O)c1 (stereo not shown) [7-10] | < 100
5 | COc1cccc(-c2c(C)n(Cc3c(F)cccc3F)c(=O)n(CCN3CCC(N4CCCC4)CC3)c2=O)c1 [7-2] | < 100
6 | CCOC(=O)N1CCN(CCn2c(=O)c(-c3ccc4c(c3)OCO4)c(C)n(Cc3c(F)cccc3F)c2=O)CC1 [9-362] | < 100
7 | CCN(CCc1ccccn1)CCn1c(=O)c(-c2cccc(OC)c2)c(C)n(Cc2c(F)cccc2F)c1=O [1-10] | < 100
8 | CCCN1CCN(CCn2c(=O)c(-c3ccccc3F)c(C)n(Cc3c(F)cccc3F)c2=O)CC1 [9-240] | < 100
9 | Cc1c(-c2ccc3c(c2)OCO3)c(=O)n(CCNCC(F)(F)F)c(=O)n1Cc1c(F)cccc1F [9-164] | < 100
10 | Cc1cc(-c2c(C)n(Cc3c(F)cccc3F)c(=O)n(C[C@H](N)c3ccccc3)c2=O)ccc1F [8-44] | < 100
11 | Cc1cc(=O)n(C[C@@H](N)Cc2ccccc2)c(=O)n1Cc1c(F)cccc1F [8-4] | < 100
12 | Cc1c(-c2ccc3c(c2)OCCO3)c(=O)n(CCN2CCN(Cc3ccc4c(c3)OCO4)CC2)c(=O)n1Cc1c(F)cccc1F [9-95] | < 100
13 | Cc1c(-c2ccc(Oc3ccccc3)cc2)c(=O)n(CCNCc2ccc(F)cc2C(F)(F)F)c(=O)n1Cc1c(F)cccc1F [9-145] | < 100
14 | COc1cccc(-c2c(C)n(Cc3c(F)cccc3F)c(=O)n(C[C@H](C)N(C)Cc3ccccc3)c2=O)c1F [9-305] | < 100
15 | Cc1c(-c2ccc3c(c2)OCCO3)c(=O)n(CCN(CCC#N)Cc2cccnc2)c(=O)n1Cc1c(F)cccc1F [9-200] | < 100

More lines, now with the values ahead:

Row | Ki [nM] | SMILES
16 | < 100 | CCC(C)C(C)CN[C@@H](C)Cn1c(=O)c(-c2cccc(OC)c2F)c(C)n(Cc2c(F)cccc2F)c1=O (stereo partly shown) [9-678]
17 | < 100 | CCN[C@H](Cn1c(=O)c(-c2cccc(OC)c2F)c(C)n(Cc2c(F)cccc2F)c1=O)C(C)C [9-714]
18 | < 100 | Cc1c(-c2csc(-c3ccccc3)n2)c(=O)n(C[C@H](N)c2ccccc2)c(=O)n1Cc1c(F)cccc1F [12-4]
19 | < 100 | Cc1c(-c2ccc3c(c2)OCO3)c(=O)n(C[C@H](CO)N(CC2CC2)CC2CC2)c(=O)n1Cc1c(F)cccc1F [9-745]
20 | < 100 | COc1cccc(-c2c(C)n(Cc3c(F)cccc3F)c(=O)n(CC(C)NCc3cc(Br)cs3)c2=O)c1F (stereo not shown) [9-622]
21 | < 100 | COc1cccc(-c2c(C)n(Cc3c(F)cccc3F)c(=O)n(C[C@H](C)NCc3ccc(Cl)s3)c2=O)c1F [9-677]
22 | < 100 | CCOc1ccccc1CNC[C@@H](C)n1c(=O)c(-c2cccc(C)c2F)c(C)n(Cc2c(F)cccc2F)c1=O [9-636]
